ChEMBL document CHEMBL2086297, “Reduced pulmonary surfactant interaction of daptomycin analogs via tryptophan replacement with alternative amino acids” (2012)
Converted amounts (≈) assume the structure as drawn.

Key:
Type in all cases: functional
Staphylococcus aureus [1] = assay: Antibacterial activity against methicillin-susceptible Staphylococcus aureus ATCC 29213 grown on calcium supplemented Mueller-Hinton broth by broth microdilution method
Staphylococcus aureus [2] = assay: Antibacterial activity against methicillin-susceptible Staphylococcus aureus ATCC 29213 by broth microdilution method in presence of 1% pulmonary surfactant; conditions: ATCC 29213, Pulmonary surfactant
Staphylococcus aureus [3] = assay: Antibacterial activity against methicillin-susceptible Staphylococcus aureus ATCC 29213 by broth microdilution method in presence of 5% pulmonary surfactant; conditions: ATCC 29213, Pulmonary surfactant
Staphylococcus aureus [4] = assay: Antibacterial activity against methicillin-susceptible Staphylococcus aureus ATCC 29213 by broth microdilution method in presence of 4% human serum albumin

MIC (Staphylococcus aureus [1])	MIC (Staphylococcus aureus [2])	MIC (Staphylococcus aureus [3])	MIC (Staphylococcus aureus [4])	SMILES
> 32 µg/mL	> 32 µg/mL	> 32 µg/mL	> 32 µg/mL	CCCCCCCCCC(=O)N[C@@H](Cc1ccc(O)cc1)C(=O)N[C@@H](CC(N)=O)C(=O)N[C@@H](CC(=O)O)C(=O)N[C@@H]1C(=O)NCC(=O)N[C@@H](CCCN)C(=O)N[C@@H](CC(=O)O)C(=O)N[C@H](C)C(=O)N[C@@H](CC(=O)O)C(=O)NCC(=O)N[C@H](CO)C(=O)N[C@@H]([C@@H](C)CC(=O)O)C(=O)N[C@@H](CC(=O)c2ccccc2N)C(=O)O[C@@H]1C
16 µg/mL (≈ 10 µM)	16 µg/mL	32 µg/mL	32 µg/mL	CCCCCCCCCC(=O)N[C@@H](Cc1ccc(N)cc1)C(=O)N[C@@H](CC(N)=O)C(=O)N[C@@H](CC(=O)O)C(=O)N[C@@H]1C(=O)NCC(=O)N[C@@H](CCCN)C(=O)N[C@@H](CC(=O)O)C(=O)N[C@H](C)C(=O)N[C@@H](CC(=O)O)C(=O)NCC(=O)N[C@H](CO)C(=O)N[C@@H]([C@@H](C)CC(=O)O)C(=O)N[C@@H](CC(=O)c2ccccc2N)C(=O)O[C@@H]1C
1 µg/mL (≈ 0.627 µM)	2 µg/mL	8 µg/mL	8 µg/mL	CCCCCCCCCC(=O)N[C@@H](Cc1ccc(C)cc1)C(=O)N[C@@H](CC(N)=O)C(=O)N[C@@H](CC(=O)O)C(=O)N[C@@H]1C(=O)NCC(=O)N[C@@H](CCCN)C(=O)N[C@@H](CC(=O)O)C(=O)N[C@H](C)C(=O)N[C@@H](CC(=O)O)C(=O)NCC(=O)N[C@H](CO)C(=O)N[C@@H]([C@@H](C)CC(=O)O)C(=O)N[C@@H](CC(=O)c2ccccc2N)C(=O)O[C@@H]1C
2 µg/mL (≈ 1.26 µM)	4 µg/mL	8 µg/mL	4 µg/mL	CCCCCCCCCC(=O)N[C@@H](Cc1ccccc1)C(=O)N[C@@H](CC(N)=O)C(=O)N[C@@H](CC(=O)O)C(=O)N[C@@H]1C(=O)NCC(=O)N[C@@H](CCCN)C(=O)N[C@@H](CC(=O)O)C(=O)N[C@H](C)C(=O)N[C@@H](CC(=O)O)C(=O)NCC(=O)N[C@H](CO)C(=O)N[C@@H]([C@@H](C)CC(=O)O)C(=O)N[C@@H](CC(=O)c2ccccc2N)C(=O)O[C@@H]1C
2 µg/mL (≈ 1.23 µM)	8 µg/mL	32 µg/mL	8 µg/mL	CCCCCCCCCC(=O)N[C@@H](CCc1ccc(OC)cc1)C(=O)N[C@@H](CC(N)=O)C(=O)N[C@@H](CC(=O)O)C(=O)N[C@@H]1C(=O)NCC(=O)N[C@@H](CCCN)C(=O)N[C@@H](CC(=O)O)C(=O)N[C@H](C)C(=O)N[C@@H](CC(=O)O)C(=O)NCC(=O)N[C@H](CO)C(=O)N[C@@H]([C@@H](C)CC(=O)O)C(=O)N[C@@H](CC(=O)c2ccccc2N)C(=O)O[C@@H]1C
4 µg/mL (≈ 2.46 µM)	4 µg/mL	16 µg/mL	8 µg/mL	CCCCCCCCCC(=O)N[C@@H](Cc1ccc(OCC)cc1)C(=O)N[C@@H](CC(N)=O)C(=O)N[C@@H](CC(=O)O)C(=O)N[C@@H]1C(=O)NCC(=O)N[C@@H](CCCN)C(=O)N[C@@H](CC(=O)O)C(=O)N[C@H](C)C(=O)N[C@@H](CC(=O)O)C(=O)NCC(=O)N[C@H](CO)C(=O)N[C@@H]([C@@H](C)CC(=O)O)C(=O)N[C@@H](CC(=O)c2ccccc2N)C(=O)O[C@@H]1C
2 µg/mL (≈ 1.24 µM)	2 µg/mL	4 µg/mL	4 µg/mL	CCCCCCCCCC(=O)N[C@@H](Cc1cccc(OC)c1)C(=O)N[C@@H](CC(N)=O)C(=O)N[C@@H](CC(=O)O)C(=O)N[C@@H]1C(=O)NCC(=O)N[C@@H](CCCN)C(=O)N[C@@H](CC(=O)O)C(=O)N[C@H](C)C(=O)N[C@@H](CC(=O)O)C(=O)NCC(=O)N[C@H](CO)C(=O)N[C@@H]([C@@H](C)CC(=O)O)C(=O)N[C@@H](CC(=O)c2ccccc2N)C(=O)O[C@@H]1C
2 µg/mL (≈ 1.24 µM)	2 µg/mL	4 µg/mL	8 µg/mL	CCCCCCCCCC(=O)N[C@@H](Cc1ccccc1OC)C(=O)N[C@@H](CC(N)=O)C(=O)N[C@@H](CC(=O)O)C(=O)N[C@@H]1C(=O)NCC(=O)N[C@@H](CCCN)C(=O)N[C@@H](CC(=O)O)C(=O)N[C@H](C)C(=O)N[C@@H](CC(=O)O)C(=O)NCC(=O)N[C@H](CO)C(=O)N[C@@H]([C@@H](C)CC(=O)O)C(=O)N[C@@H](CC(=O)c2ccccc2N)C(=O)O[C@@H]1C
8 µg/mL (≈ 4.87 µM)	8 µg/mL	8 µg/mL	16 µg/mL	CCCCCCCCCC(=O)N[C@@H](Cc1ccc(OC)cc1OC)C(=O)N[C@@H](CC(N)=O)C(=O)N[C@@H](CC(=O)O)C(=O)N[C@@H]1C(=O)NCC(=O)N[C@@H](CCCN)C(=O)N[C@@H](CC(=O)O)C(=O)N[C@H](C)C(=O)N[C@@H](CC(=O)O)C(=O)NCC(=O)N[C@H](CO)C(=O)N[C@@H]([C@@H](C)CC(=O)O)C(=O)N[C@@H](CC(=O)c2ccccc2N)C(=O)O[C@@H]1C
0.25 µg/mL (≈ 0.153 µM)	16 µg/mL	> 32 µg/mL	1 µg/mL	CCCCCCCCCC(=O)N[C@@H](Cc1c[nH]c2ccc(F)cc12)C(=O)N[C@@H](CC(N)=O)C(=O)N[C@@H](CC(=O)O)C(=O)N[C@@H]1C(=O)NCC(=O)N[C@@H](CCCN)C(=O)N[C@@H](CC(=O)O)C(=O)N[C@H](C)C(=O)N[C@@H](CC(=O)O)C(=O)NCC(=O)N[C@H](CO)C(=O)N[C@@H]([C@@H](C)CC(=O)O)C(=O)N[C@@H](CC(=O)c2ccccc2N)C(=O)O[C@@H]1C
2 µg/mL (≈ 1.22 µM)	8 µg/mL	16 µg/mL	4 µg/mL	CCCCCCCCCC(=O)N[C@@H](Cc1csc2ccccc12)C(=O)N[C@@H](CC(N)=O)C(=O)N[C@@H](CC(=O)O)C(=O)N[C@@H]1C(=O)NCC(=O)N[C@@H](CCCN)C(=O)N[C@@H](CC(=O)O)C(=O)N[C@H](C)C(=O)N[C@@H](CC(=O)O)C(=O)NCC(=O)N[C@H](CO)C(=O)N[C@@H]([C@@H](C)CC(=O)O)C(=O)N[C@@H](CC(=O)c2ccccc2N)C(=O)O[C@@H]1C
2 µg/mL (≈ 1.21 µM)	32 µg/mL	> 32 µg/mL	8 µg/mL	CCCCCCCCCC(=O)N[C@@H](Cc1ccc(C(F)(F)F)cc1)C(=O)N[C@@H](CC(N)=O)C(=O)N[C@@H](CC(=O)O)C(=O)N[C@@H]1C(=O)NCC(=O)N[C@@H](CCCN)C(=O)N[C@@H](CC(=O)O)C(=O)N[C@H](C)C(=O)N[C@@H](CC(=O)O)C(=O)NCC(=O)N[C@H](CO)C(=O)N[C@@H]([C@@H](C)CC(=O)O)C(=O)N[C@@H](CC(=O)c2ccccc2N)C(=O)O[C@@H]1C
1 µg/mL (≈ 0.606 µM)	4 µg/mL	4 µg/mL	32 µg/mL	CCCCCCCCCC(=O)N[C@@H](Cc1ccc(N2CCCC2)cc1)C(=O)N[C@@H](CC(N)=O)C(=O)N[C@@H](CC(=O)O)C(=O)N[C@@H]1C(=O)NCC(=O)N[C@@H](CCCN)C(=O)N[C@@H](CC(=O)O)C(=O)N[C@H](C)C(=O)N[C@@H](CC(=O)O)C(=O)NCC(=O)N[C@H](CO)C(=O)N[C@@H]([C@@H](C)CC(=O)O)C(=O)N[C@@H](CC(=O)c2ccccc2N)C(=O)O[C@@H]1C
> 32 µg/mL	> 32 µg/mL	> 32 µg/mL	> 32 µg/mL	CCCCCCCCCC(=O)N[C@@H](Cc1ccc(C(=O)O)cc1)C(=O)N[C@@H](CC(N)=O)C(=O)N[C@@H](CC(=O)O)C(=O)N[C@@H]1C(=O)NCC(=O)N[C@@H](CCCN)C(=O)N[C@@H](CC(=O)O)C(=O)N[C@H](C)C(=O)N[C@@H](CC(=O)O)C(=O)NCC(=O)N[C@H](CO)C(=O)N[C@@H]([C@@H](C)CC(=O)O)C(=O)N[C@@H](CC(=O)c2ccccc2N)C(=O)O[C@@H]1C
4 µg/mL (≈ 2.42 µM)	16 µg/mL	32 µg/mL	8 µg/mL	CCCCCCCCCC(=O)N[C@@H](Cc1c[nH]c2ccc(OC)cc12)C(=O)N[C@@H](CC(N)=O)C(=O)N[C@@H](CC(=O)O)C(=O)N[C@@H]1C(=O)NCC(=O)N[C@@H](CCCN)C(=O)N[C@@H](CC(=O)O)C(=O)N[C@H](C)C(=O)N[C@@H](CC(=O)O)C(=O)NCC(=O)N[C@H](CO)C(=O)N[C@@H]([C@@H](C)CC(=O)O)C(=O)N[C@@H](CC(=O)c2ccccc2N)C(=O)O[C@@H]1C
2 µg/mL (≈ 1.23 µM)	2 µg/mL	2 µg/mL	4 µg/mL	CCCCCCCCCC(=O)N[C@@H](Cc1ccc(N(C)C)cc1)C(=O)N[C@@H](CC(N)=O)C(=O)N[C@@H](CC(=O)O)C(=O)N[C@@H]1C(=O)NCC(=O)N[C@@H](CCCN)C(=O)N[C@@H](CC(=O)O)C(=O)N[C@H](C)C(=O)N[C@@H](CC(=O)O)C(=O)NCC(=O)N[C@H](CO)C(=O)N[C@@H]([C@@H](C)CC(=O)O)C(=O)N[C@@H](CC(=O)c2ccccc2N)C(=O)O[C@@H]1C
4 µg/mL (≈ 2.52 µM)	8 µg/mL	16 µg/mL	32 µg/mL	CCCCCCCCCC(=O)N[C@@H](Cc1ccsc1)C(=O)N[C@@H](CC(N)=O)C(=O)N[C@@H](CC(=O)O)C(=O)N[C@@H]1C(=O)NCC(=O)N[C@@H](CCCN)C(=O)N[C@@H](CC(=O)O)C(=O)N[C@H](C)C(=O)N[C@@H](CC(=O)O)C(=O)NCC(=O)N[C@H](CO)C(=O)N[C@@H]([C@@H](C)CC(=O)O)C(=O)N[C@@H](CC(=O)c2ccccc2N)C(=O)O[C@@H]1C
2 µg/mL (≈ 1.25 µM)	8 µg/mL	16 µg/mL	8 µg/mL	CCCCCCCCCC(=O)N[C@@H](Cc1ccc(F)cc1)C(=O)N[C@@H](CC(N)=O)C(=O)N[C@@H](CC(=O)O)C(=O)N[C@@H]1C(=O)NCC(=O)N[C@@H](CCCN)C(=O)N[C@@H](CC(=O)O)C(=O)N[C@H](C)C(=O)N[C@@H](CC(=O)O)C(=O)NCC(=O)N[C@H](CO)C(=O)N[C@@H]([C@@H](C)CC(=O)O)C(=O)N[C@@H](CC(=O)c2ccccc2N)C(=O)O[C@@H]1C

SMILES	MIC (Staphylococcus aureus [1])	MIC (Staphylococcus aureus [2])	MIC (Staphylococcus aureus [3])	MIC (Staphylococcus aureus [4])
CO/N=C(\C(=O)N[C@@H]1C(=O)N2C(C(=O)O)=C(CSc3nc(=O)c(O)nn3C)CS[C@H]12)c1csc(N)n1 [CEFTRIAXONE]	2 µg/mL (≈ 3.61 µM)	2 µg/mL	2 µg/mL	8 µg/mL
CCCCCCCCCC(=O)N[C@@H](Cc1ccc(OC)cc1)C(=O)N[C@@H](CC(N)=O)C(=O)N[C@@H](CC(=O)O)C(=O)N[C@@H]1C(=O)NCC(=O)N[C@@H](CCCN)C(=O)N[C@@H](CC(=O)O)C(=O)N[C@H](C)C(=O)N[C@@H](CC(=O)O)C(=O)NCC(=O)N[C@H](CO)C(=O)N[C@@H]([C@@H](C)CC(=O)O)C(=O)N[C@@H](CC(=O)c2ccccc2N)C(=O)O[C@@H]1C	2 µg/mL (≈ 1.24 µM)	2 µg/mL	2 µg/mL	8 µg/mL
